Experimental data taken from US12404241B2 (Celgene Corporation, priority 2018, dated 2025).
Counter-ions that a name gives are not always drawn. Like-named read-outs stand apart in the source and are kept apart here.

Target: T1, AR (Homo sapiens, UniProt P10275)
T1 construct: endogenous in cells; host or cells: VCaP cells
T1 sequence (P10275 1-920): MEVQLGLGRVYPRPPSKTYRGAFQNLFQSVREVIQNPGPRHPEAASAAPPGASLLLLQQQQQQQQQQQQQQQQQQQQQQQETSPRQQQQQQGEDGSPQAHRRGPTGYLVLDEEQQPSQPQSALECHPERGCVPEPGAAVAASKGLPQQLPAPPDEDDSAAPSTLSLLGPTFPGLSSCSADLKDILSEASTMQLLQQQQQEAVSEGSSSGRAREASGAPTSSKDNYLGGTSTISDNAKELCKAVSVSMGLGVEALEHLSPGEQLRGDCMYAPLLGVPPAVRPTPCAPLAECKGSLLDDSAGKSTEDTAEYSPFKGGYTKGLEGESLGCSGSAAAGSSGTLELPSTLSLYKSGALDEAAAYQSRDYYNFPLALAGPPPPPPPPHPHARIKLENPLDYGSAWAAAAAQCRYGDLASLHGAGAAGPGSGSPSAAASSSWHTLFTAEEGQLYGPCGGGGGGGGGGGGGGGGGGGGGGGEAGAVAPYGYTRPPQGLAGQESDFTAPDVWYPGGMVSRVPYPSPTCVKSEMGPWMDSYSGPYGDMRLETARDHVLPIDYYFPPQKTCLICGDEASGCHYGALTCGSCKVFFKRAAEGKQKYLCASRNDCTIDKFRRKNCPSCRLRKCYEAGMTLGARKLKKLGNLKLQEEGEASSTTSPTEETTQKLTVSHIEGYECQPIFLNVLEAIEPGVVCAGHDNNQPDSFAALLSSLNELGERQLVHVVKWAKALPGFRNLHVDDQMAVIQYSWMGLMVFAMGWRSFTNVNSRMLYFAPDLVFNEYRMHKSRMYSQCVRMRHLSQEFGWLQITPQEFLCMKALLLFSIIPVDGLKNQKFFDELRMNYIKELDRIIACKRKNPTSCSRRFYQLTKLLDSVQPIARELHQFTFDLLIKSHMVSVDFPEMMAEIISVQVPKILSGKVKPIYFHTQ
Assay: VCAP AR Degradation Assay
Assay type: cell-based
Settings: for Y (AR degradation efficiency, % of DMSO control): class symbols *; for DC50: class symbols A-C
How it was run: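 VCaP cells treated 24 h at 37 °C with a 10-point 1:3 series (top 5 μM final; 0.1% DMSO control). Lysate AR measured by sandwich ELISA, normalized to DMSO as percent of control; DC50, EC50 and lowest AR level (Y) from four-parameter logistic fit.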

SMILES | Y (AR degradation efficiency, % of DMSO control) | DC50 (read-out: DC50) | DC50
CC1(C)C(=O)N(c2cnc(C#N)c(C(F)(F)F)c2)C(=S)N1c1ccc(OCCN2CCN(CC(=O)Nc3cc(Cl)cc(NC4CCC(=O)NC4=O)c3)CC2)c(CC(F)F)c1 (stereo not shown) [Example 67, N-(3-chloro-5-(2,6-dioxopiperidin-3-ylamino)phenyl)-2-(4-(2-(4-(3-(6-cyano-5-(trifluoromethyl)pyridin-3-yl)-5,5-dimethyl-4-oxo-2-thioxoimidazolidin-1-yl)-2-(2,2-difluoroethyl)phenoxy)ethyl)piperazin-1-yl)acetamide] | * (0<Y<=25%) | < 0.1 µM | 
CCc1cc(N2C(=S)N(c3ccc(C#N)c(C(F)(F)F)c3)C(=O)C2(C)C)ccc1OCCN1CCN(C(C)(C)C(=O)Nc2cc(Cl)cc(NC3CCC(=O)NC3=O)c2)CC1 (stereo not shown) [Example 133, N-(3-chloro-5-(2,6-dioxopiperidin-3-ylamino)phenyl)-2-(4-(2-(4-(3-(4-cyano-3-(trifluoromethyl)phenyl)-5,5-dimethyl-4-oxo-2-thioxoimidazolidin-1-yl)-2-ethylphenoxy)ethyl)piperazin-1-yl)-2-methylpropanamide] | ** (25%<Y<=35%) | 0.1 to 0.5 µM | 
C[C@@H]1CN(CCOc2ccc(N3C(=S)N(c4ccc(C#N)c(Cl)c4)C(=O)C3(C)C)cc2C(C)(F)F)C[C@H](C)N1CC(=O)Nc1cccc(NC2CCC(=O)NC2=O)c1 (stereo partly drawn) [Example 269, 2-((2S,6R)-4-(2-(4-(3-(3-chloro-4-cyanophenyl)-5,5-dimethyl-4-oxo-2-thioxoimidazolidin-1-yl)-2-(1,1-difluoroethyl)phenoxy)ethyl)-2,6-dimethylpiperazin-1-yl)-N-(3-(2,6-dioxopiperidin-3-ylamino)phenyl)acetamide] | * (0<Y<=25%) | < 0.1 µM | 
CC(C)c1cc(N2C(=S)N(c3ccc(C#N)c(C(F)(F)F)c3)C(=O)C2(C)C)ccc1OCCN1CCN(C2(C(=O)Nc3cccc(NC4CCC(=O)NC4=O)c3)CC2)CC1 (stereo not shown) [Example 197] | *** (35%<Y<50%) | 0.1 to 0.5 µM | 
CCc1cc(N2C(=S)N(c3cnc(C#N)c(C(F)(F)F)c3)C(=O)C2(C)C)ccc1OCCN1CCN(CC(=O)Nc2cc(F)cc(NC3CCC(=O)NC3=O)c2)C2(CC2)C1 (stereo not shown) [Example 110, 2-(7-(2-(4-(3-(6-cyano-5-(trifluoromethyl)pyridin-3-yl)-5,5-dimethyl-4-oxo-2-thioxoimidazolidin-1-yl)-2-ethylphenoxy)ethyl)-4,7-diazaspiro[2.5]octan-4-yl)-N-(3-(2,6-dioxopiperidin-3-ylamino)-5-fluorophenyl)acetamide] | * (0<Y<=25%) | < 0.1 µM | 
CC(O)c1cc(N2C(=S)N(c3cnc(C#N)c(C(F)(F)F)c3)C(=O)C2(C)C)ccc1OCCN1CCN(CC(=O)Nc2cc(Cl)cc(NC3CCC(=O)NC3=O)c2)CC1 (stereo not shown) [Example 92, N-(3-chloro-5-(2,6-dioxopiperidin-3-ylamino)phenyl)-2-(4-(2-(4-(3-(6-cyano-5-(trifluoromethyl)pyridin-3-yl)-5,5-dimethyl-4-oxo-2-thioxoimidazolidin-1-yl)-2-(1-hydroxyethyl)phenoxy)ethyl)piperazin-1-yl)acetamide] | *** (35%<Y<50%) | 0.1 to 0.5 µM | 
CC[C@H]1CN(CCOc2ccc(N3C(=S)N(c4ccc(C#N)c(C(F)(F)F)c4)C(=O)C3(C)C)cc2C2CC2)CCN1CC(=O)Nc1cccc(NC2CCC(=O)NC2=O)c1 (stereo partly drawn) [Example 263, 2-((S)-4-(2-(4-(3-(4-cyano-3-(trifluoromethyl)phenyl)-5,5-dimethyl-4-oxo-2-thioxoimidazolidin-1-yl)-2-cyclopropylphenoxy)ethyl)-2-ethylpiperazin-1-yl)-N-(3-(2,6-dioxopiperidin-3-ylamino)phenyl)acetamide] | * (0<Y<=25%) | < 0.1 µM | 
CC(F)(F)c1cc(N2C(=S)N(c3ccc(C#N)c(C(F)(F)F)c3)C(=O)C2(C)C)ccc1OCCN1CCN(CC(=O)Nc2cccc(NC3CCC(=O)NC3=O)c2)CC1 (stereo not shown) [Example 59, 2-(4-(2-(4-(3-(4-cyano-3-(trifluoromethyl)phenyl)-5,5-dimethyl-4-oxo-2-thioxoimidazolidin-1-yl)-2-(1,1-difluoroethyl)phenoxy)ethyl)piperazin-1-yl)-N-(3-(2,6-dioxopiperidin-3-ylamino)phenyl)acetamide] | * (0<Y<=25%) | < 0.1 µM | 
CCc1cc(N2C(=S)N(c3ccc(C#N)c(C(F)(F)F)c3)C(=O)C2(C)C)ccc1OCCN1CCN([C@H](C)C(=O)Nc2cccc(NC3CCC(=O)NC3=O)c2)[C@H](C)C1 (stereo partly drawn) [Example 280, (2R)-2-((R)-4-(2-(4-(3-(4-cyano-3-(trifluoromethyl)phenyl)-5,5-dimethyl-4-oxo-2-thioxoimidazolidin-1-yl)-2-ethylphenoxy)ethyl)-2-methylpiperazin-1-yl)-N-(3-(2,6-dioxopiperidin-3-ylamino)phenyl)propanamide] | *** (35%<Y<50%) | 0.1 to 0.5 µM | 
CCC(C)c1cc(N2C(=S)N(c3ccc(C#N)c(C(F)(F)F)c3)C(=O)C2(C)C)ccc1OCCN1CCN(CC(=O)Nc2cccc(NC3CCC(=O)NC3=O)c2)CC1 (stereo not shown) [Example 29, hydrochloride] | ** (25%<Y<=35%) | 0.5 to 1 µM | 
CCc1cc(N2C(=S)N(c3cnc(C#N)c(C(F)(F)F)c3)C(=O)C23CCC3)ccc1OCCN1CC2CCC(C1)N2CC(=O)Nc1cccc(NC2CCC(=O)NC2=O)c1 (stereo not shown) [Example 171, 2-(3-(2-(4-(7-(6-cyano-5-(trifluoromethyl)pyridin-3-yl)-8-oxo-6-thioxo-5,7-diazaspiro[3.4]octan-5-yl)-2-ethylphenoxy)ethyl)-3,8-diazabicyclo[3.2.1]octan-8-yl)-N-(3-(2,6-dioxopiperidin-3-ylamino)phenyl)acetamide] | * (0<Y<=25%) |  | < 0.1 µM
CCCc1cc(N2C(=S)N(c3ccc(C#N)c(C(F)(F)F)c3)C(=O)C2(C)C)ccc1OCCN1CCN(CC(=O)Nc2cccc(NC3CCC(=O)NC3=O)c2)CC1 (stereo not shown) [Example 34, hydrochloride] | * (0<Y<=25%) | < 0.1 µM | 
CCc1cc(N2C(=S)N(c3ccc(C#N)c(C(F)(F)F)c3)C(=O)C2(C)C)ccc1OCCN1C[C@@H](C)N(CC(=O)Nc2cccc(NC3CCC(=O)NC3=O)c2)[C@@H](C)C1 (stereo partly drawn) [Example 150, 2-((2S,6R)-4-(2-(4-(3-(4-cyano-3-(trifluoromethyl)phenyl)-5,5-dimethyl-4-oxo-2-thioxoimidazolidin-1-yl)-2-ethylphenoxy)ethyl)-2,6-dimethylpiperazin-1-yl)-N-(3-(2,6-dioxopiperidin-3-ylamino)phenyl)acetamide] | * (0<Y<=25%) | < 0.1 µM | 
CC(C)c1cc(N2C(=S)N(c3ccc(C#N)c(C(F)(F)F)c3)C(=O)C2(C)C)ccc1OCCN1C[C@@H](C)N(CC(=O)Nc2cccc(NC3CCC(=O)NC3=O)c2)[C@@H](C)C1 (stereo partly drawn) [Example 170, 2-((2S,6R)-4-(2-(4-(3-(4-cyano-3-(trifluoromethyl)phenyl)-5,5-dimethyl-4-oxo-2-thioxoimidazolidin-1-yl)-2-isopropylphenoxy)ethyl)-2,6-dimethylpiperazin-1-yl)-N-(3-(2,6-dioxopiperidin-3-ylamino)phenyl)acetamide] | * (0<Y<=25%) | < 0.1 µM | 
CCc1cc(N2C(=S)N(c3ccc(C#N)c(C(F)(F)F)c3)C(=O)C2(C)C)ccc1OCCN1CCN(CC(=O)Nc2cc(NC3CCC(=O)NC3=O)cc(F)c2F)CC1 (stereo not shown) [Example 70, 2-(4-(2-(4-(3-(4-cyano-3-(trifluoromethyl)phenyl)-5,5-dimethyl-4-oxo-2-thioxoimidazolidin-1-yl)-2-ethylphenoxy)ethyl)piperazin-1-yl)-N-(5-(2,6-dioxopiperidin-3-ylamino)-2,3-difluorophenyl)acetamide] | * (0<Y<=25%) | < 0.1 µM | 
CC1(C)C(=O)N(c2ccc(C#N)c(C(F)(F)F)c2)C(=S)N1c1ccc(OCCN2CCN(CC(=O)Nc3cccc(NC4CCC(=O)NC4=O)c3)CC2)c(F)c1 (stereo not shown) [Example 1, formate] | *** (35%<Y<50%) | < 0.1 µM | 
CCc1cc(N2C(=S)N(c3ccc(C#N)c(C(F)(F)F)c3)C(=O)C2(C)C)ccc1CCCN1C[C@@H](C)N(CC(=O)Nc2cccc(NC3CCC(=O)NC3=O)c2)[C@@H](C)C1 (stereo partly drawn) [Example 284, 2-((2R,6S)-4-(3-(4-(3-(4-cyano-3-(trifluoromethyl)phenyl)-5,5-dimethyl-4-oxo-2-thioxoimidazolidin-1-yl)-2-ethylphenyl)propyl)-2,6-dimethylpiperazin-1-yl)-N-(3-(2,6-dioxopiperidin-3-ylamino)phenyl)acetamide] | * (0<Y<=25%) | < 0.1 µM | 
